# Experimental data as given in publication PMC7900114, “Three-dimensional structure of human cyclooxygenase (hCOX)-1” (Scientific Reports, 2021).
# Key:
# oCOX-1 = molecular target: T1, oCOX-1 (Ovis aries, UniProt P05979); details: enzyme specific activity in the presence of arachidonic acid 100 µM and the inhibitor
# T1 sequence (P05979 25-600): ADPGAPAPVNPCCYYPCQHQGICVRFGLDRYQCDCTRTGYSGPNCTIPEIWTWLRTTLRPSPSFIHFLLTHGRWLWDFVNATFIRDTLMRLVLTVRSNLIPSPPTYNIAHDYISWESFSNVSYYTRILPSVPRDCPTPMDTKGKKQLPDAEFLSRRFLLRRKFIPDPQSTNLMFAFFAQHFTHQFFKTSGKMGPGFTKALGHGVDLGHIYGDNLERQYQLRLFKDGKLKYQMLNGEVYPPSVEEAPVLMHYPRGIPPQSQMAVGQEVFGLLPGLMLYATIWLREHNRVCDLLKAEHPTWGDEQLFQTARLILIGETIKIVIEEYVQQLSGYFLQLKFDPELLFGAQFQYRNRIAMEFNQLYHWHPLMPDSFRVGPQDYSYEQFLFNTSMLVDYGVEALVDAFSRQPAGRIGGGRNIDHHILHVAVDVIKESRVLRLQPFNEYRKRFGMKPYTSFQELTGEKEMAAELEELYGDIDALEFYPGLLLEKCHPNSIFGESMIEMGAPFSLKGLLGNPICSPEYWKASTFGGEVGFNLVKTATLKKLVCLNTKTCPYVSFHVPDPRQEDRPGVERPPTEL
# Experimental: (§1) Functional analysis of ovine and human COX-1 catalytic activity was determined by monitoring O2 consumption by using an Oxytherm electrode unit (Hansatech), in the presence of arachidonic acid and different inhibitors. The instrument is equipped with a Clark-type oxygen electrode to monitor the dissolved oxygen concentration in a sealed measurement chamber over the time. Oxygen consumption was measured at 37 °C directly in a 1000 µL reaction vessel. Briefly, it follows the description of a typical assay: Oxygraph buffer (the opportune volume is adjusted to 1000 µL of final volume according to the volume of the protein), 5 µM hemin (1 µL), 100 µM arachidonic acid (20 µL) and inhibitor (10 µL) at the opportune concentrations.
# (§2) Oxygen consumption determination (μmol/ml O2) started after the addition of the ovine or human COX-1/Sf9 sonicated pellet (C = 2.6 mg/ml) to the mixture containing Oxygraph buffer, arachidonic acid and test compounds at the opportune concentrations. Assay mixture was allowed to equilibrate in the reaction vessel at 37 °C for several minutes until steady baseline was recorded. Uninfected Sf9 sonicated cells were used as a negative control. Stock solutions were prepared in a minimum volume of vehicle (DMSO).
# hCOX-1 = hCOX-1 (Homo sapiens, UniProt P23219); details: enzyme specific activity in the presence of arachidonic acid 100 µM and the inhibitor
# Chain of hCOX-1 (P23219 24-599): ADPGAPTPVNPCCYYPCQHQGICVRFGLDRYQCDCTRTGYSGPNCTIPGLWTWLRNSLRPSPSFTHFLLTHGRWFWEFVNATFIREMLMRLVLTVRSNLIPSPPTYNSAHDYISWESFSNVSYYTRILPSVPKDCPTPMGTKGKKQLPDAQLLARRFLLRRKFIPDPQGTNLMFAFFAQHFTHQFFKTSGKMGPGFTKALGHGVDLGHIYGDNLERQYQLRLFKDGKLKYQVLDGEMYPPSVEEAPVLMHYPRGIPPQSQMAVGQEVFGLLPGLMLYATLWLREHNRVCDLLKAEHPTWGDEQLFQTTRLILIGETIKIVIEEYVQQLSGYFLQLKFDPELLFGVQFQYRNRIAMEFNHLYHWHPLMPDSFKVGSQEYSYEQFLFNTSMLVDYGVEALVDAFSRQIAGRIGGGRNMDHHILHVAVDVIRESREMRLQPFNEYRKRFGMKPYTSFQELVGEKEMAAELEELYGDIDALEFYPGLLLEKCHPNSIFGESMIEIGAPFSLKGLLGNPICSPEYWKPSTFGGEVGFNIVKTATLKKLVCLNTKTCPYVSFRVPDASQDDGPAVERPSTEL
# Experimental: as §1, §2
compound,measurement,setting,value
COc1ccc(-c2noc(CC(=O)O)c2-c2ccc(OC)cc2)cc1 [mofezolac],Specific activity oCOX-1,oCOX-1,3.5 µmol/min/mg
same,Specific activity hCOX-1,hCOX-1,4.5 µmol/min/mg
